Results as given in patent US10555919B2, “Melatonin in autoimmune disease” (The Brigham and Women's Hopsital, Inc., priority 2014, dated 2020).

Test system: CD4+ T cells
Assay: Flow cytometry of T cell subsets from spleen, lymph nodes and CNS of EAE mice
Assay type: in vivo, C57BL/6 wild-type mice
Conditions: melatonin 5 mg/kg daily
Procedure: For intracellular cytokine staining, cells were stimulated for 4 h at 37° C. with phorbol 12-myristate 13-acetate (50 ng/ml; Sigma), ionomycin (1 μg/ml; Sigma) and monensin (GolgiStop; 1 μg/ml; BD Biosciences). After being stained for surface markers, cells were fixed and made permeable according to the manufacturer's instructions (BD Biosciences). All antibodies against cytokines were from Biolegend. All experiments were started at the same time (8-9 am). Data were collected with a LSR II or FACSAria (BD Biosciences), then were analyzed with FlowJo software (Treestar). CNS infiltrates were isolated as described (Mascanfroni et al., 2013). Mice were perfused with ice-cold PBS. The brain and spinal cord were removed and incubated in PBS containing collagenase type III (2 mg/ml; Worthington) and DNase (20 units/ml; Sigma-Aldrich). Tissues were then homogenized and loaded on a 30%-37%-70% Percoll gradient for enrichment of CNS infiltrates. Based on our epidemiological findings, we studied the effects of melatonin on CNS inflammation using the experimental autoimmune […] (EAE) model of MS. Naïve C57BL/6 wild-type mice were immunized with MOG35-55 and treated daily with melatonin (5 mg/kg, intraperitoneally) or vehicle. Melatonin administration ameliorated EAE clinical symptoms (FIG. 2a, Table 2 and FIG. 7a).

COc1ccc2[nH]cc(CCNC(C)=O)c2c1 [Melatonin, N-Acetyl-5-methoxytryptamine]
IL-10 secreting CD4+ T cells: increase | number and frequency of Th17 cells in spleen, lymph nodes and CNS: decreased number and frequency | number or frequency of other T cell subsets, B cells, γδ T cells or innate lymphoid cells (ILCs): no significant changes
